In ChEMBL document CHEMBL4024761, “Protac-Induced Protein Degradation in Drug Discovery: Breaking the Rules or Just Making New Ones?” (J Med Chem, 2018):

How the values were obtained:
[1] = molecular target: von Hippel-Lindau disease tumor suppressor/Receptor-interacting serine/threonine-protein kinase 2 (Homo sapiens, UniProt O43353+P40337); assay: Proteolysis targeting chimera activity in human THP1 cells assessed as induction of VHL-mediated delivery of RIPK2 for protein degradation by proteasome by measuring drug level causing 50% cellular protein depletion incubated for 16 hrs by Western blotting method; assay type: cell-based
Sequence of von Hippel-Lindau disease tumor suppressor/Receptor-interacting serine/threonine-protein kinase 2 (O43353 whole entry): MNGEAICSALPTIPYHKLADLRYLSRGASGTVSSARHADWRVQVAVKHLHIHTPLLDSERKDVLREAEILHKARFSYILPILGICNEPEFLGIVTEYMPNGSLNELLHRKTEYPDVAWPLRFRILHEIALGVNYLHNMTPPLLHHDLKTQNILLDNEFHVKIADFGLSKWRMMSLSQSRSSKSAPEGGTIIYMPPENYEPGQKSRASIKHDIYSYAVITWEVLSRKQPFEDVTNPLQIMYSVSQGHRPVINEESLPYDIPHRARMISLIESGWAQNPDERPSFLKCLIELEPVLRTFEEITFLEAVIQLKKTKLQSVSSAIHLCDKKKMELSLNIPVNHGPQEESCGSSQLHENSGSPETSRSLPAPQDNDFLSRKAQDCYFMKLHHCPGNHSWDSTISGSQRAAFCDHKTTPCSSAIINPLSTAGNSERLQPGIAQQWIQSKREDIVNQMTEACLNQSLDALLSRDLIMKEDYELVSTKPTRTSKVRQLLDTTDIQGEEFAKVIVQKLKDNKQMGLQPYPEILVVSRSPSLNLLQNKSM
Sequence of von Hippel-Lindau disease tumor suppressor/Receptor-interacting serine/threonine-protein kinase 2 (P40337 whole entry): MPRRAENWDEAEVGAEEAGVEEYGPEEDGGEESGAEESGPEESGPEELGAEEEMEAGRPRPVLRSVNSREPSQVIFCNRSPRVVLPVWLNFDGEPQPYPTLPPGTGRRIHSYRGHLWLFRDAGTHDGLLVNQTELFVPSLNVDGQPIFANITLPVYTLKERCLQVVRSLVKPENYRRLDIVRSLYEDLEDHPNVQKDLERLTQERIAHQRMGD

[2] = molecular target: von Hippel-Lindau disease tumor suppressor (Homo sapiens, UniProt P40337); assay: Binding affinity to VHL (unknown origin) assessed as reduction of HIF1alpha derived peptide binding to VHL complex by competitive binding fluorescence polarization assay
Sequence of von Hippel-Lindau disease tumor suppressor (P40337 whole entry): as above

DC50 [1]: 1 nM
Kd [2]: 500 nM
Compound: Cc1ncsc1-c1ccc(CNC(=O)[C@@H]2C[C@@H](O)CN2C(=O)[C@@H](NC(=O)COCCOCCOCCOCCOc2cc3nccc(Nc4ccc5scnc5c4)c3cc2S(=O)(=O)C(C)(C)C)C(C)(C)C)cc1
